Where only a bound is given, the exact number is not on record here.

The target of the assay is T1, DCAF1 WD40 domain (residues 1077-1390) (Homo sapiens, UniProt Q9Y4B6).
T1 construct: DCAF1 WD40 domain (residues 1077-1390)
Briefly: DCAF1 binding assay by SPR (Biacore 8K+), DCAF1-3 KD. To be noted: 25 °C, read-out: DCAF1-3 SPR (KD).

T1 sequence (Q9Y4B6 1077-1390): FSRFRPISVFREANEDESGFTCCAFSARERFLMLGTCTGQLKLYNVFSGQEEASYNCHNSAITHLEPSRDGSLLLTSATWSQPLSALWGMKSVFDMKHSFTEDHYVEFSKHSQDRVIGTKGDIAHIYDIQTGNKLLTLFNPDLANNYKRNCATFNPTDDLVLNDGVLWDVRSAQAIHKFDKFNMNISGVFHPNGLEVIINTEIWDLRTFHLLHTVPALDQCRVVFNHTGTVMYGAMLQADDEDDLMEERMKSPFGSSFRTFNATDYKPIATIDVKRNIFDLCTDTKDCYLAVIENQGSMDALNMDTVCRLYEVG

With `NC(=O)OCc1cccc(N2CCC[C@H]3[C@@H]2CCN3c2cc(N3CCCCC3)ccn2)c1` [I-954], the Kd is under 10 µM.

Consider `Cc1c(F)ccc(F)c1-c1c(C(=O)N[C@@H](CC(N)=O)c2cccc(Cl)c2)c[nH]c1C(=O)c1ccc(CCCOCCOCCOCCOCCOCCN)cc1` [I-805], for which the Kd was under 10 µM.

With `c1ccc(-c2nc3cccc(N4CCC[C@@H](Nc5cc(N6CCOCC6)ccn5)C4)c3o2)cc1` [I-685], the Kd was over 200 µM.

For the compound `OCc1c(CN2CCCCC2)cccc1C1CCCN(c2cccc(F)c2)C1` (stereo not shown) [I-981], the Kd fell in the range of 10 to 100 µM.

Regarding `C=CC(=O)N1CCN(c2ccnc(N[C@@H]3CCCN(c4cccc(F)c4)C3)c2)CC1` [I-446], the Kd is over 200 µM.

As to `c1cc(N2CCCCC2)cc(N[C@@H]2CCC[C@H](C3CCCCC3)C2)n1` [I-751], the Kd is over 200 µM.

Consider `Cc1sc2c(c1C)C(c1ccc(Cl)cc1)=N[C@@H](CC(=O)NCCOCCOCCOCCOCCOCC(=O)c1c(-c3c(F)ccc(F)c3C)c(C(=O)N[C@@H](CC(N)=O)c3cccc(Cl)c3)cn1C)c1nnc(C)n1-2` [I-912], for which the Kd is under 10 µM.

Take `COc1cnc(N2CCOCC2)cc1N[C@@H]1CCCN(c2cccc(F)c2)C1` [I-407]: the Kd was over 200 µM.

Take `Cc1sc2c(c1C)C(c1ccc(Cl)cc1)=N[C@@H](CC(=O)NCCCCCCCCCCCCCCCCCC(=O)c1[nH]cc(C(=O)N[C@@H](CC(N)=O)c3cccc(Cl)c3)c1-c1ccccc1F)c1nnc(C)n1-2` [I-893]: the Kd was over 200 µM.

Regarding `Fc1cccc(N2CCC[C@@H](N(CC3CC3)c3nccc(N4CCOCC4)n3)C2)c1` [I-41], the Kd lay within 100 to 200 µM.

On to `OC[C@@H]1CC[C@@H](Nc2cc(N3CCCCC3)ccn2)CN1c1cccc(F)c1` [I-995], for which the Kd was in the range of 10 to 100 µM.

As to `C=CC(=O)N1CCCC(N(C)c2ccnc(N[C@@H]3CCCN(c4cccc(F)c4)C3)c2)C1` (stereo partly shown) [I-459], the Kd was over 200 µM.

On to `Fc1cccc(N2CCCC(Nc3cc(N4CCOCC4)ccn3)C23CC(F)(F)C3)c1` (stereo not shown) [I-296], for which the Kd is over 200 µM.

Regarding `c1cc(CN2CCCC2)cc(N2CCC[C@@H](Nc3cc(N4CCOCC4)ccn3)C2)c1` [I-689], the Kd was under 10 µM.

For `Cc1cccc(C)c1-c1[nH]ncc1C(=O)N[C@@H](CC(N)=O)c1cccc(Cl)c1` [I-595], the Kd is under 10 µM.

Take `C=CC(=O)N1CCC(c2n[nH]cc2C(=O)N[C@@H](CC(N)=O)c2cccc(Cl)c2)C1` (stereo partly shown) [I-453]: the dissociation constant Kd is over 200 µM.

Take `Cc1c(F)ccc(F)c1-c1[nH]ncc1C(=O)N[C@@H](CC(=O)N1CCN(C(=O)OCc2ccccc2)CC1)c1cccc(Cl)c1` [I-884]: the Kd is under 10 µM.

As for `N#Cc1nccc(N2CCC[C@@H](Nc3cc(N4CCOCC4)ccn3)C2)n1` [I-414], the Kd is over 200 µM.

Regarding `Nc1ncc(N[C@@H]2CCCN(c3cccc(F)c3)C2)cc1N1CCOCC1` [I-546], the Kd is under 10 µM.

With `NC(=O)C[C@H](NC(=O)c1n[nH]nc1-c1ncccc1F)c1cccc(Cl)c1` [I-201], the Kd is over 200 µM.

Consider `C=CC(=O)NCCCC1CCN(c2ccnc(N3CC[C@@H]4[C@H]3CCCN4c3cccc(F)c3)c2)CC1` [I-705], for which the Kd was 100 to 200 µM.

Consider `Cc1ccccc1-c1[nH]ncc1C(=O)N[C@@H](CC(N)=O)c1cccc(Cl)c1` [I-104], for which the Kd was under 10 µM.

As for `Cc1cccc(F)c1-c1c(C(=O)N[C@@H](CC(N)=O)c2cccc(Cl)c2)c[nH]c1C(=O)Cc1ccccc1` [I-622], the Kd is under 10 µM.

`NC(=O)[C@@H]1C[C@@H](Nc2cc(N3CCCCC3)ccn2)CN(c2cccc(F)c2)C1` [I-1033]: the Kd is under 10 µM.

Consider `OCCc1ccc(N2CCC[C@@H](Nc3cc(N4CCOCC4)ccn3)C2)cc1` [I-860], for which the Kd was over 200 µM.

For the compound `O=C(N[C@H](c1cccc(Cl)c1)[C@H]1CCCNC1=O)c1c[nH]nc1-c1ccccc1F` [I-194], the dissociation constant (Kd) was over 200 µM.

As to `C=CC(=O)NCCC1CCN(c2ccnc(N3CC[C@@H]4[C@H]3CCCN4c3cccc(F)c3)c2)CC1` [I-666], the equilibrium dissociation constant (Kd) is over 200 µM.

With `C=CC(=O)Nc1ccc2c(C(=O)N[C@@H](CC(N)=O)c3cccc(Cl)c3)n[nH]c2c1` [I-301], the Kd was over 200 µM.

With `COc1ccc(-c2ccncc2)cc1N1CCC[C@@H](Nc2cc(N3CCOCC3)ccn2)C1` [I-698], the Kd was in the range of 10 to 100 µM.

`C=CC(=O)NCC1CCN(c2ccnc(N3CC[C@H]4[C@@H]3CCCN4c3cccc(F)c3)c2)CC1` [I-671]: the dissociation constant (Kd) was under 10 µM.

Take `NC(=O)CCc1cc(N2CCC[C@@H]3[C@H]2CCN3c2cc(N3CCCCC3)ccn2)ccc1F` [I-875]: the Kd lay in the range of 10 to 100 µM.

On to `Cc1cc(CCCOCCOCCOCCOCCOCCNC(=O)C[C@@H]2N=C(c3ccc(Cl)cc3)c3c(sc(C)c3C)-n3c(C)nnc32)cc(F)c1-c1c(C(=O)N[C@@H](CC(N)=O)c2cccc(Cl)c2)c[nH]c1C#N` [I-1051], for which the Kd is under 10 µM.

As for `N#Cc1[nH]cc(C(=O)N[C@@H](CC(N)=O)c2cccc(Cl)c2)c1-c1ccccc1F` [I-598], the Kd is under 10 µM.

Regarding `CN(c1cc(N2CCOCC2)ncn1)[C@@H]1CCCN(c2cccc(F)c2)C1` [I-385], the dissociation constant Kd was over 200 µM.

With `Cc1ccc(N2CCC[C@@H](Nc3cc(N4CCOCC4)ccn3)C2)cc1` [I-509], the Kd lay in the range of 10 to 100 µM.

`NC(=O)C[C@H](NC(=O)c1cn[nH]c1-c1cc(CC(F)F)ccc1F)c1cccc(Cl)c1` [I-251]: the dissociation constant (Kd) is over 200 µM.

For `NC(=O)C[C@H](NC(=O)c1cn(CC2CC2)nc1-c1ccccc1F)c1cccc(Cl)c1` [I-137], the Kd is 10 to 100 µM.

With `COc1c(N[C@@H]2CCCN(c3cccc(F)c3)C2)cncc1N1CCOCC1` [I-544], the dissociation constant Kd was 100 to 200 µM.

As to `CC1(C)CCCCN1c1ccnc(N[C@@H]2CCCN(c3cccc(F)c3)C2)c1` [I-658], the Kd lay in the range of 10 to 100 µM.

With `Oc1ccc(N2CCC[C@@H](Nc3cncc(N4CCOCC4)c3)C2)cc1` [I-567], the dissociation constant Kd fell in the range of 10 to 100 µM.

As for `NS(=O)(=O)[C@@H]1[C@H](Nc2cc(N3CCOCC3)ccn2)CCCN1c1cccc(F)c1` [I-283], the Kd is over 200 µM.

For the compound `COc1ncc2cc[nH]c2c1N1CCC[C@@H](Nc2cc(N3CCOCC3)ccn2)C1` [I-859], the Kd was 10 to 100 µM.

As for `COc1ccc(N2CCOCC2)cc1N[C@@H]1CCCN(c2cccc(F)c2)C1` [I-121], the Kd is over 200 µM.

`NCCCCCCCCCCCC1CCN(c2ccnc(N3CC[C@@H]4[C@H]3CCCN4c3cccc(F)c3)c2)CC1` [I-721]: the Kd was under 10 µM.

Regarding `NC(=O)C[C@H](NC(=O)c1cn[nH]c1-c1ccccc1F)c1ccccc1O` [I-339], the Kd was over 200 µM.

Turning to `Cc1nn(CC(F)(F)F)cc1N1CCC[C@@H](Nc2cc(N3CCOCC3)ccn2)C1` [I-422], the Kd is over 200 µM.

Turning to `O[C@@H]1C[C@@H](Nc2cc(N3CCOCC3)ccn2)CN(c2cccc(F)c2)C1` [I-274], the Kd is 10 to 100 µM.

Take `C=CC(=O)N1CC(c2n[nH]cc2C(=O)N[C@@H](CC(N)=O)c2cccc(Cl)c2)C1` [I-455]: the dissociation constant (Kd) was over 200 µM.

Take `NC(=O)C[C@H](NC(=O)c1c[nH]nc1-c1cccc2nc[nH]c12)c1cccc(Cl)c1` [I-239]: the Kd was over 200 µM.

Regarding `Cc1sc2c(c1C)C(c1ccc(Cl)cc1)=N[C@@H](CC(=O)NCCOCCOCCOCCOCC(=O)c1[nH]cc(C(=O)N[C@@H](CC(N)=O)c3cccc(Cl)c3)c1-c1ccccc1F)c1nnc(C)n1-2` [I-896], the Kd is under 10 µM.

Take `NC(=O)C[C@H](NC(=O)c1c[nH]nc1-c1cccc2nc[nH]c12)c1cccc(Cl)c1` [I-355]: the Kd was in the range of 10 to 100 µM.

Turning to `C=C1CCCN(c2ccnc(N[C@@H]3CCCN(c4cccc(F)c4)C3)c2)C1=O` [I-461], the Kd was over 200 µM.

As to `Cc1ncc(N[C@@H]2CCCN(c3cccc(F)c3)C2)cc1N1CCOCC1` [I-545], the Kd is over 200 µM.

Take `C=CC(=O)Nc1ccc(-c2n[nH]cc2C(=O)N[C@@H](CC(N)=O)c2cccc(Cl)c2)cc1` [I-474]: the Kd is over 200 µM.

Consider `Cc1sc2c(c1C)C(c1ccc(Cl)cc1)=N[C@@H](CC(=O)NCCOCCOCCOCCOCCn1cc(C(=O)N[C@@H](CC(N)=O)c3cccc(Cl)c3)c(-c3ccccc3F)n1)c1nnc(C)n1-2` [I-490], for which the Kd was in the range of 10 to 100 µM.

Take `Cc1sc2c(c1C)C(c1ccc(Cl)cc1)=N[C@@H](CC(=O)NCCCCCCCCCCCCCCCCCC1CCN(c3ccnc(N4CC[C@@H]5[C@H]4CCCN5c4cccc(F)c4)c3)CC1)c1nnc(C)n1-2` [I-901]: the Kd was over 200 µM.

As to `c1cc(N2CCC[C@@H](Nc3cc(N4CCOCC4)ncn3)C2)c2cccnc2c1` [I-393], the Kd was over 200 µM.

For the compound `NC(=O)OCc1cccc(N2CCC[C@@H]3[C@H]2CCN3c2cc(N3CCCCC3)ccn2)c1` [I-955], the Kd is 10 to 100 µM.

On to `NCCOCCOCCOCCOCCOCCC1CCN(c2ccnc(N3CC[C@@H]4[C@H]3CCCN4c3cccc(F)c3)c2)CC1` [I-651], for which the Kd was under 10 µM.

For `Cc1ccc(N2CCC[C@@H](Nc3cc(N4CCOCC4)ncn3)C2)cc1` [I-8], the Kd lay within 100 to 200 µM.

Consider `NC(=O)C[C@@]1(c2cccc(Cl)c2)CN=C(c2c[nH]nc2-c2ccccc2F)N1` [I-191], for which the Kd is over 200 µM.

Turning to `CC(=O)NC1CCC2(CC1)CCN(c1ccnc(N3CC[C@@H]4[C@H]3CCCN4c3cccc(F)c3)c1)CC2` [I-1047], the Kd is under 10 µM.

Consider `C[C@H](C(N)=O)[C@H](NC(=O)c1c[nH]nc1-c1ccccc1F)c1cccc(Cl)c1` [I-147], for which the Kd was 10 to 100 µM.

In the case of `c1cc2cc(N3CCC[C@@H](Nc4nccc(N5CCOCC5)n4)C3)ccc2cn1` [I-33], the Kd was over 200 µM.

Take `NC(=O)C[C@H](NC(=O)c1c[nH]nc1-c1cc(C(=O)O)ccc1F)c1cccc(Cl)c1` [I-269]: the Kd is over 200 µM.

With `Fc1cccc(N2CCC[C@@H](Nc3cc(N4CCCCCC4)ccn3)C2)c1` [I-597], the Kd was under 10 µM.

`N#CCCN(c1cc(N2CCOCC2)ccn1)[C@@H]1CCCN(c2cccc(F)c2)C1` [I-289]: the Kd was over 200 µM.

Consider `COCCc1[nH]nc(C(=O)N[C@@H](CC(N)=O)c2cccc(Cl)c2)c1-c1ccccc1F` [I-330], for which the dissociation constant (Kd) was over 200 µM.

`Cc1sc2c(c1C)C(c1ccc(Cl)cc1)=N[C@@H](CC(=O)NCCOCCOCCOCCOCCn1ncc(C(=O)N[C@@H](CC(N)=O)c3cccc(Cl)c3)c1-c1ccccc1F)c1nnc(C)n1-2` [I-491]: the Kd is over 200 µM.

On to `Fc1cccc(N2CCC[C@@H](Nc3cc(N4CCCCC4)cc4c3CNC4)C2)c1` [I-1050], for which the Kd is 10 to 100 µM.

(Values after patent US20260373266A1, “PROTEIN DEGRADERS AND USES THEREOF” (KYMERA THERAPEUTICS, INC., priority 2022, published 2026).)
